From patent publication US4029790A, “1-Benzoyl-2 or 4 [2-(4-phenyl-piperazino)-ethyl]-piperidines” (Centre European de Recherches Mauvernay, priority 1974, dated 1977)
Like-named read-outs stand apart in the source and are kept apart here.

Key:
Histaminic bronchospasm = Histaminic bronchospasm in the Guinea Pig (histamine aerosol technique); format: in vivo; settings: for responders at 50 mg/kg: 50 mg/kg P.O., 45 minutes after treatment, 0.3% histamine aerosol; for ED50: read-out: Bronchospasmolytic activity ED50; for affinity for the bronchopulmonary system; activities (in words): summary of Table II; for responders at 25 mg/kg: * Dose used: 25 mg/kg P.O.
[1] = system: electrical stimulation of the upper laryngic nerve; assay: Antitussive properties in the Cat (test of Domenjoz, electrical stimulation of the upper laryngic nerve); format: in vivo; settings: for inhibition in vivo at 10 mg/kg / inhibition in vivo at 20 mg/kg: Felis catus, intraduodenal, read-out: Antitussive activity, Mean (percentage of inhibition); for inhibition in vivo at 20 mg/kg: 20 mg/kg I.D.
Experimental: The bronchospasmolytic and also antitussive activities of these compounds were investigated by means of the following tests:
2. Investigation of Antitussive Properties in the Cat
The test used was then of Domenjoz R.(Arch. Exp. Pathol. v. Pharmacol. 215, 1952).
The electrical stimulation of the upper laryngic nerve had the following characteristics: 2v, 6 Hz square waves of 5 msec - period of stimulation 10 to 20 seconds at intervals of 7 minutes 5 seconds. The activity of the product was evaluated as a percentage of inhibition.

[2] = Cavia porcellus, po, 0.75 h, read-out: Bronchospasmolytic activity, % activity
[3] = Cavia porcellus, po, 0.75 h, P.O., linearisation method, ] [: 5% confidence limit of ED50

`O=C(c1ccc(F)cc1)N1CCCCC1CCN1CCN(c2ccc(F)cc2)CC1` (stereo not drawn) [Compound 4, 1-(4-fluoro)-benzoyl-2-{2-[4-(4-fluoro)phenyl]piperazinyl} ethyl piperidine] was tested, and the responders at 50 mg/kg (Histaminic bronchospasm; [2]) was 100%, the ED50 (Histaminic bronchospasm; [3]) was 5.7 mg/kg and the “affinity for the bronchopulmonary system; activities (in words)” value (shortened to “affinity for the bronchopulmonary system”) (Histaminic bronchospasm) was “particularly marked”. It also gave an inhibition in vivo at 10 mg/kg ([1]; 10 mg/kg I.D.) of 58.6 ± 19.2%.

`CN(C)CCOC(c1ccccc1)c1ccccc1` [Diphenyl-dramine, Diphenyldramine, reference compound] gave a responders at 10 mg/kg (Histaminic bronchospasm; Cavia porcellus, inhaled or nasal, 0.75 h, read-out: Bronchospasmolytic activity, % activity) of 93%, an ED50 (Histaminic bronchospasm; Cavia porcellus, po, 0.75 h) of 4.5 mg/kg and an inhibition in vivo at 10 mg/kg [1] of 65.3 ± 9.5%.

Compound `COc1ccc2c(c1)C13CCCCC1C(C2)N(C)CC3` (stereo not drawn) [Dextrome-torphane, Dextrometorphane, reference compound] has a responders at 100 mg/kg (Histaminic bronchospasm; [2]) of 0% and an inhibition in vivo at 10 mg/kg [1] of 76.2 ± 34%.

`O=C(c1ccc(Cl)cc1)N1CCC(CCN2CCN(c3ccc(F)cc3)CC2)CC1` [Compound 13] was tested, and the responders at 25 mg/kg (Histaminic bronchospasm; [2]) was 100%, the ED50 (Histaminic bronchospasm; [3]) was 11.6 mg/kg and the “affinity for the bronchopulmonary system” value (Histaminic bronchospasm) was “particularly marked”. It also gave an inhibition in vivo at 20 mg/kg [1] of 0%.

With `O=C(c1ccc(Cl)cc1)N1CCCCC1CCN1CCN(c2cccc(Cl)c2)CC1` (stereo not drawn) [Compound 9] the responders at 50 mg/kg (Histaminic bronchospasm; [2]) was 80% and the ED50 (Histaminic bronchospasm; [3]) was 13 mg/kg.

`O=C(c1ccc(Cl)cc1)N1CCC(CCN2CCN(c3ccc(Cl)cc3)CC2)CC1` [Compound 10, 1-(4-chloro)benzolyl-4-{2-[4-(4-chloro)phenyl] -piperazinyl} -ethyl piperidine] showed a responders at 50 mg/kg (Histaminic bronchospasm; [2]) of 100% and an inhibition in vivo at 20 mg/kg [1] of 0%.

With `O=C(c1ccccc1)N1CCCCC1CCN1CCN(c2ccc(F)cc2)CC1` (stereo not drawn) [Compound 1] the responders at 50 mg/kg (Histaminic bronchospasm; [2]) was 60%, the inhibition in vivo at 10 mg/kg ([1]; 10 mg/kg I.D.) was 73.7 ± 13.7% and the “antitussive properties (in words)” value ([1]; summary of Table II) was “interesting antitussive properties”.

Compound `O=C(c1ccccc1)N1CCCCC1CCN1CCN(c2ccc(Cl)cc2)CC1` (stereo not drawn) [Compound 7] has a responders at 50 mg/kg (Histaminic bronchospasm; [2]) of 60% and an inhibition in vivo at 20 mg/kg [1] of 74%.

For `O=C(c1ccc(F)cc1)N1CCC(CCN2CCN(c3ccc(F)cc3)CC2)CC1` [Compound 14], the responders at 25 mg/kg (Histaminic bronchospasm; [2]) was 100%, the ED50 (Histaminic bronchospasm; [3]) was 0.94 mg/kg and the “affinity for the bronchopulmonary system” value (Histaminic bronchospasm) was “particularly marked”. The inhibition in vivo at 20 mg/kg [1] was 44.7 ± 29.3%.

With `O=C(c1ccc(Cl)cc1)N1CCCCC1CCN1CCN(c2ccc(F)cc2)CC1` (stereo not drawn) [Compound 2] the responders at 50 mg/kg (Histaminic bronchospasm; [2]) was 100%, the ED50 (Histaminic bronchospasm; [3]) was 25 mg/kg and the “affinity for the bronchopulmonary system” value (Histaminic bronchospasm) was “particularly marked”. The inhibition in vivo at 10 mg/kg ([1]; 10 mg/kg I.D.) was 0%.

Compound `O=C(c1ccc(F)cc1)N1CCC(CCN2CCN(c3ccc(Cl)cc3)CC2)CC1` [Compound 12] has a responders at 50 mg/kg (Histaminic bronchospasm; [2]) of 70%, an ED50 (Histaminic bronchospasm; [3]) of 30.9 mg/kg and an inhibition in vivo at 20 mg/kg [1] of 0%.
